Where “and” joins values, the source holds several entries; their conditions need not be identical. Identical values can stand only once.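 Step 1: Grow cells in 96-well plates. Step 2: Expose to compound for 48 hours at 5 concentrations. Step 3: Interpolate endpoints linearly; if unreached, use highest concentration. GI50 is the concentration that inhibits growth by half. At the TGI there is no net growth.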 A value given as a limit tells only on which side of the number the result lay.

In PubChem BioAssay (NCI) one finds GI50 and TGI data, which are given here for eight compounds.

Test systems include T-47D breast; OVCAR-4 ovarian; MDA-MB-231 breast; HCT-15 colon; UO-31 renal; NCI-H460 lung; DU-145 prostate; NCI/ADR-RES ovarian; SN12C renal; KM12 colon.
Assay in all cases: growth of human tumour cells (NCI), 48 h

As to `Cc1ccc(NC(=O)/C=C/c2ccccc2)c(C(N)=O)c1`, the GI50 in the test on T-47D breast is 5.11 µM; in the test with OVCAR-4 ovarian it was 9.17 µM; in the test with MDA-MB-231 breast, 5.37 µM; with HCT-15 colon, 2.43 µM; in the test on UO-31 renal, 10.3 µM; in the test on NCI-H460 lung, 3.46 µM. Besides, the GI50 was 3.81 µM in the test on DU-145 prostate, 2.54 µM in the test on NCI/ADR-RES ovarian, 7.76 µM with SN12C renal and 2.44 µM with KM12 colon. In addition, the TGI in the test with T-47D breast is greater than 74.4 µM; in the test on OVCAR-4 ovarian, greater than 100 µM; with MDA-MB-231 breast, greater than 95.7 µM; in the test on HCT-15 colon, greater than 100 µM; in the test with UO-31 renal, greater than 60 µM; in the test with NCI-H460 lung it was 25.9 µM. In addition, the TGI in the test with DU-145 prostate was greater than 41.9 µM; in the test on NCI/ADR-RES ovarian it was 18.2 µM; with SN12C renal, greater than 100 µM; with KM12 colon it was 35.5 µM.
For the compound `C=C1CC[C@@H]2[C@](C)(COC(C)=O)[C@@H](O)CC[C@@]2(C)[C@@H]1COc1ccc2ccc(=O)oc2c1`, the GI50 in the test with T-47D breast, in the test on OVCAR-4 ovarian, with MDA-MB-231 breast, with HCT-15 colon, in the test with UO-31 renal and in the test with NCI-H460 lung was greater than 100 µM throughout. In addition, the GI50 with DU-145 prostate, with NCI/ADR-RES ovarian, with SN12C renal and in the test with KM12 colon was greater than 100 µM each time. Further, the TGI with T-47D breast, in the test on OVCAR-4 ovarian, in the test with MDA-MB-231 breast, in the test on HCT-15 colon, in the test on UO-31 renal and in the test with NCI-H460 lung was greater than 100 µM each time. For the same compound, the TGI in the test with DU-145 prostate, in the test on NCI/ADR-RES ovarian, in the test with SN12C renal and in the test with KM12 colon was greater than 100 µM throughout.
Consider `COc1cc2c(cc1OCCCCOc1cc3c(cc1OC)C(=O)N1CCC[C@H]1CN3)N=C[C@@H]1CCCN1C2=O`, for which the GI50 with T-47D breast is 0.512 µM; with OVCAR-4 ovarian, 4.61 µM; in the test on MDA-MB-231 breast it was 1.05 µM; in the test on HCT-15 colon, 25.2 µM; with UO-31 renal, 2.89 µM; in the test with NCI-H460 lung, 2.92 µM. The GI50 in the test with DU-145 prostate was 2.46 µM; with NCI/ADR-RES ovarian, 45 µM; in the test with SN12C renal, 2.29 µM; in the test on KM12 colon, 1.97 µM. In addition, the TGI in the test on T-47D breast is greater than 100 µM; in the test with OVCAR-4 ovarian, greater than 100 µM; in the test on MDA-MB-231 breast, 5.26 µM; in the test on HCT-15 colon it was greater than 93.3 µM; in the test on UO-31 renal it was greater than 23.9 µM; with NCI-H460 lung it was greater than 100 µM. In addition, the TGI with DU-145 prostate is greater than 100 µM; in the test on NCI/ADR-RES ovarian it was greater than 100 µM; with SN12C renal, 18.2 µM; with KM12 colon, 86.2 µM.
On to `Cc1ccc(C(=O)Nc2ccc(CN3CCN(C)CC3)c(C(F)(F)F)c2)cc1C#Cc1cnc2cccnn12`, for which the GI50 in the test with T-47D breast is 0.54 µM and 1.68 µM; in the test on OVCAR-4 ovarian it was 0.171 µM and 0.479 µM; in the test with MDA-MB-231 breast, 0.215 µM and 0.317 µM; in the test with HCT-15 colon, 0.313 µM and 0.501 µM; in the test on UO-31 renal it was 0.34 µM and 0.349 µM; in the test on NCI-H460 lung, 0.763 µM. In addition, the GI50 with DU-145 prostate was 0.423 µM and 0.712 µM; in the test on NCI/ADR-RES ovarian it was 0.387 µM and 1.03 µM; in the test with SN12C renal, 0.262 µM and 0.515 µM; in the test on KM12 colon it was 0.0455 µM and 0.131 µM. Moreover, the TGI is 2.07 µM and 4.37 µM in the test with T-47D breast; 1.64 µM and 4.32 µM with OVCAR-4 ovarian; 1.05 µM and 1.24 µM with MDA-MB-231 breast; 1.27 µM and 3.42 µM with HCT-15 colon; 1.52 µM and 3.19 µM in the test on UO-31 renal; 4.07 µM with NCI-H460 lung. Further, the TGI in the test on DU-145 prostate was 1.57 µM and 3.72 µM; in the test on NCI/ADR-RES ovarian it was 2.15 µM and 4.54 µM; in the test on SN12C renal, 1.26 µM and 3.45 µM; with KM12 colon it was 1.22 µM and 3.72 µM.
Consider `COc1ccc(C(OCC2OC(n3ccc(NC(=O)c4ccccc4)nc3=O)C(O)C2O)(c2ccccc2)c2ccccc2)cc1` (stereo not given), for which the TGI in the test on T-47D breast is 9.42 µM; in the test with OVCAR-4 ovarian, 6.04 µM; in the test with MDA-MB-231 breast it was 4.05 µM; in the test on HCT-15 colon, 3.87 µM; in the test with UO-31 renal it was 11.4 µM; with NCI-H460 lung, 4.02 µM. In addition, the TGI was determined as 10.3 µM with DU-145 prostate, 4.89 µM with NCI/ADR-RES ovarian, 3.2 µM in the test with SN12C renal and 38.5 µM with KM12 colon.
Take `CC(C)(C)c1ccc(OCCCCCCN2CCNCC2)cc1`: the GI50 with T-47D breast is 2.22 µM; in the test on OVCAR-4 ovarian, 9.46 µM; with MDA-MB-231 breast, 2.53 µM; with HCT-15 colon, 3.04 µM; in the test with UO-31 renal it was 12.2 µM; with NCI-H460 lung, 3.21 µM. The GI50 in the test on DU-145 prostate was 10.5 µM; in the test on NCI/ADR-RES ovarian, 14.3 µM; in the test on SN12C renal, 11.7 µM; in the test with KM12 colon, 3.89 µM. Besides, the TGI with T-47D breast stood at 5.94 µM; in the test on OVCAR-4 ovarian it was 23.9 µM; in the test on MDA-MB-231 breast, 7.97 µM; in the test with HCT-15 colon it was 10 µM; with UO-31 renal, 25.6 µM; in the test on NCI-H460 lung, 11.4 µM. In addition, the TGI in the test with DU-145 prostate stood at 23.2 µM; in the test on NCI/ADR-RES ovarian, 33.7 µM; in the test on SN12C renal, 27.8 µM; in the test on KM12 colon it was 13.8 µM.
Consider `O=C(N/N=C/c1ccc2c(c1)CCC2)c1ccccc1O`, for which the TGI with T-47D breast was greater than 100 µM; in the test with OVCAR-4 ovarian, 60.2 µM; with MDA-MB-231 breast it was 58.6 µM; with HCT-15 colon, 69.6 µM; with UO-31 renal, 94.6 µM; in the test with NCI-H460 lung it was 63.2 µM. Moreover, the TGI is greater than 100 µM in the test with DU-145 prostate, 73.8 µM with NCI/ADR-RES ovarian, 62.7 µM in the test on SN12C renal and 50.7 µM with KM12 colon.
On to `CCN=C1C=CC(=C(c2ccc(N)cc2)c2ccc(N(CC)CC)c(C)c2)C=C1`, for which the GI50 with T-47D breast is 0.222 µM; in the test on OVCAR-4 ovarian, 0.298 µM; in the test on MDA-MB-231 breast, 0.219 µM; with HCT-15 colon, 0.917 µM; in the test on UO-31 renal it was 2.03 µM; in the test with NCI-H460 lung it was 0.287 µM. In addition, the GI50 in the test with DU-145 prostate is 0.43 µM; in the test on NCI/ADR-RES ovarian, 2.74 µM; in the test on SN12C renal, 0.201 µM; in the test on KM12 colon it was 0.296 µM. In addition, the TGI in the test on T-47D breast was found to be 1.34 µM; with OVCAR-4 ovarian, 1.66 µM; in the test with MDA-MB-231 breast, 0.654 µM; with HCT-15 colon, 4.77 µM; in the test on UO-31 renal, 10.3 µM; in the test on NCI-H460 lung it was 1.18 µM. Further, the TGI is 2.28 µM in the test on DU-145 prostate, greater than 100 µM with NCI/ADR-RES ovarian, 1.15 µM with SN12C renal and 1.09 µM in the test on KM12 colon.
